Test results: paper PMC12400309 (RSC Advances, 2025)

Legend:
[1] = test system: human gastric adenocarcinoma (SCM-1); test: MTT cytotoxicity assay, SCM-1; type: cell-based; details: read-out: IC50 SCM-1
[2] = test system: human breast adenocarcinoma (MCF-7); test: MTT cytotoxicity assay, MCF-7; type: cell-based; details: MCF7, read-out: IC50 MCF-7
[3] = test system: human oral squamous cell carcinoma (SCC2095); test: MTT cytotoxicity assay, SCC2095; type: cell-based; details: read-out: IC50 SCC2095
[4] = test system: human leukemia MOLT-4 cell line; details: cited from earlier work
[5] = test system: colchicine resistant KB-C2 cell lines; details: cited from earlier work

Row | Compound | IC50 [1] | IC50 [3] | further results
1 | CC[C@H](CC[C@@H](C)[C@H]1CC[C@H]2[C@@H]3[C@H](O)C=C4C[C@@H](O)CC[C@]4(C)[C@H]3CC[C@]12C)C(C)C [Compound 8, (3β,7α)-stigmast-5-ene-3,7-diol] | > 30 µM | > 30 µM | IC50 [2]: > 30 µM
2 | COc1cc(C=O)cc(OC)c1O [Compound 14, 4-hydroxy-3,5-dimethoxybenzaldehyde] | > 10 µM | > 10 µM | IC50 [2]: > 10 µM
3 | COc1cc([C@@H]2c3cc4c(cc3[C@@H](O[C@@H]3O[C@@H]5CO[C@@H](C)O[C@H]5[C@H](O)[C@H]3O)[C@H]3COC(=O)[C@H]23)OCO4)cc(OC)c1O [Etoposide] | – | 2.5 ± 0.2 µM | –
4 | CC(=O)O[C@H]1C(=O)[C@@]2(C)[C@H]([C@H](OC(=O)c3ccccc3)[C@]3(O)C[C@H](OC(=O)[C@H](O)[C@@H](NC(=O)c4ccccc4)c4ccccc4)C(C)=C1C3(C)C)[C@]1(OC(C)=O)CO[C@@H]1C[C@@H]2O [Paclitaxel] | 0.07 ± 0.002 µM | – | –
5 | CC(=O)OC[C@H]1O[C@@H](O[C@@H]2C[C@H]3C(C)(C)[C@H](OC(C)=O)CC[C@]3(C)[C@H]3CC[C@]45C[C@]4(CC[C@H]5[C@@H](C)C[C@@H](O)[C@H](O)C(C)(C)O)[C@@]32C)[C@H](O)[C@@H](O)[C@@H]1O [cumingianoside A] | – | – | ED50 cytotoxicity MOLT-4 [4]: < 6.25 ng/mL
6 | COC(C)(C)[C@@H](O)[C@H](O)C[C@H](C)[C@@H]1CC[C@]23C[C@]12CC[C@@H]1[C@@]2(C)CC[C@@H](OC(C)=O)C(C)(C)[C@@H]2C[C@@H](O[C@@H]2O[C@H](COC(C)=O)[C@@H](O)[C@H](O)[C@H]2O)[C@]13C [cumingianoside C] | – | – | ED50 cytotoxicity MOLT-4 [4]: < 4.5 ng/mL
7 | cumingianol B | – | – | cytotoxicity against multi-drug resistant KB-C2 cancer cells (in words) [5]: enhanced cytotoxicity
8 | dycusin A | – | – | cytotoxicity against multi-drug resistant KB-C2 cancer cells (in words) [5]: enhanced cytotoxicity
